#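 Five compound concentrations were applied to cells in 96-well plates for 48 hours; endpoints were derived by simple linear interpolation of the resulting dose-response curve. The concentration for 50% growth inhibition is given as GI50. TGI: total growth inhibition.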
# Columns and labels:
# Assay in all cases: NCI-60 cell line screen, 48 h
# ACHN renal = tested on: ACHN renal
# CAKI-1 renal = tested on: CAKI-1 renal
# HCC-2998 colon = tested on: HCC-2998 colon
# HL-60(TB) leukemia = tested on: HL-60(TB) leukemia
# LOX IMVI melanoma = tested on: LOX IMVI melanoma
# MOLT-4 leukemia = tested on: MOLT-4 leukemia
# NCI-H23 lung = tested on: NCI-H23 lung
# SK-MEL-2 melanoma = tested on: SK-MEL-2 melanoma
# U251 CNS = tested on: U251 CNS
# SR leukemia = tested on: SR leukemia
Structure (SMILES),GI50 (ACHN renal),TGI (ACHN renal),GI50 (CAKI-1 renal),TGI (CAKI-1 renal),GI50 (HCC-2998 colon),TGI (HCC-2998 colon),GI50 (HL-60(TB) leukemia),TGI (HL-60(TB) leukemia),GI50 (LOX IMVI melanoma),TGI (LOX IMVI melanoma),GI50 (MOLT-4 leukemia),TGI (MOLT-4 leukemia),GI50 (NCI-H23 lung),TGI (NCI-H23 lung),GI50 (SK-MEL-2 melanoma),TGI (SK-MEL-2 melanoma),GI50 (U251 CNS),TGI (U251 CNS),TGI (SR leukemia),GI50 (SR leukemia)
CC(=O)OC12C=C(C)C(C(C)C1)C1C(=O)N(CCN3CCOCC3)C(=O)C12 (stereo unspecified),> 100 µM,> 100 µM,> 100 µM,> 100 µM,> 100 µM,> 100 µM,> 100 µM,> 100 µM,> 100 µM,> 100 µM,> 100 µM,> 100 µM,> 100 µM,> 100 µM,> 100 µM,> 100 µM,> 100 µM,> 100 µM,,
CCN(CC)CC1c2ccccc2C(CNc2ccccc2)N1C (stereo unspecified),,> 100 µM,,> 100 µM,,> 100 µM,,> 100 µM,,> 100 µM,,> 100 µM,,> 100 µM,,> 100 µM,,,,
O=C(/C=C\c1cccc([N+](=O)[O-])c1)/C=C/c1cccc([N+](=O)[O-])c1,4.47 µM,> 100 µM,4.4 µM,> 100 µM,2.6 µM,6.9 µM,,,1.73 µM,4.56 µM,,,4.43 µM,> 100 µM,19.5 µM,49.4 µM,2.06 µM,5.21 µM,,
COc1ccc(-c2[nH]c3ccccc3c2-c2ccc(OC)cc2)cc1,11.9 µM,28.3 µM,3.67 µM,17.1 µM,6.11 µM,21.1 µM,2.03 µM,6.03 µM,3.77 µM,14.8 µM,2.68 µM,9.62 µM,6.26 µM,26.2 µM,8.31 µM,25.6 µM,4.54 µM,16.8 µM,,
CC(=O)CN(Cc1cc(C)c2c(c1)c1ccccc1n2Cc1ccccc1)S(=O)(=O)c1ccc(C)cc1,,,,> 100 µM,,> 100 µM,,> 100 µM,,,,> 100 µM,,> 100 µM,,> 100 µM,,,> 100 µM,
COc1ccc(C=O)c([N+](=O)[O-])c1,,> 100 µM,,,,,,23.6 µM,,> 100 µM,,> 100 µM,,> 100 µM,,> 100 µM,,> 100 µM,,
CCCCCCCCCCCCCCCCCC1=NCCN1CCOC1=C(Cl)C(=O)c2ccccc2C1=O,1.58 µM,3.01 µM,1.57 µM,2.98 µM,3.51 µM,12.3 µM,1.34 µM,6 µM,,,0.747 µM,3.8 µM,2.5 µM,7.73 µM,2.39 µM,5.08 µM,1.87 µM,3.67 µM,4.72 µM,2.07 µM
CC(=O)NC(CCCNC(=O)N(CCCl)N=O)C(=O)NCc1ccccc1 (stereo unspecified),,> 100 µM,,> 100 µM,,> 100 µM,,> 100 µM,,,,> 100 µM,,> 100 µM,,> 100 µM,,> 100 µM,> 100 µM,
CN=c1ccc2nc3ccc(N)cc3sc-2c1,2.25 µM,17.4 µM,2.36 µM,12.4 µM,4.32 µM,38.6 µM,0.354 µM,1.67 µM,1.87 µM,9.58 µM,1.77 µM,6.86 µM,1.83 µM,12.9 µM,11 µM,30.9 µM,1.36 µM,10.2 µM,,
O=C1OC(Cc2ccccc2)(N2CCCC2=O)C1c1ccccc1 (stereo unspecified),,> 100 µM,,> 100 µM,,,,> 100 µM,,,,> 100 µM,,> 100 µM,,> 100 µM,,> 100 µM,> 100 µM,
CCOC(=O)C1C(=S)NC(=O)C1C#N (stereo unspecified),,> 100 µM,,> 100 µM,,> 100 µM,,> 100 µM,,> 100 µM,,> 100 µM,,> 100 µM,,> 100 µM,,> 100 µM,,
O=C1CC(c2c[nH]c3ccccc23)C(=O)N1 (stereo unspecified),,> 100 µM,,> 100 µM,,> 100 µM,,> 100 µM,,,,> 100 µM,,> 100 µM,,> 100 µM,,> 100 µM,,
COc1cccc(OC(=O)c2ccc(C(F)(F)F)nc2Nc2cc(Cl)ccc2C)c1,15.6 µM,> 100 µM,17.6 µM,36.1 µM,,,,,3.68 µM,23.8 µM,3.11 µM,7.99 µM,20.2 µM,49.5 µM,12.9 µM,50.2 µM,8.13 µM,> 100 µM,,
CCCP1(=O)C=C(C)C(=C(Cl)Cl)C(C)=C1 (stereo unspecified),,> 100 µM,,,,92.4 µM,,54.7 µM,,,,98.6 µM,,85.5 µM,,41 µM,,> 100 µM,77.4 µM,
COc1cccc(OC)c1C(=O)OCc1ccccc1,,> 100 µM,,> 100 µM,,,,> 100 µM,,,,> 100 µM,,> 100 µM,,> 100 µM,,> 100 µM,> 100 µM,
NNC(=O)CS(=O)(=O)Nc1ncccn1,,> 100 µM,,> 100 µM,,,,,,> 100 µM,,,,> 100 µM,,> 100 µM,,> 100 µM,,
Clc1ccc(Nc2nc3ccccc3nc2-c2cccs2)cc1Cl,,> 100 µM,,,,> 100 µM,,78.3 µM,,,,> 100 µM,,> 100 µM,,> 100 µM,,,> 100 µM,
CC(=O)C(CN(CC(C)C)CC(C)C)C(c1ccccc1)c1c(O)c2ccccc2oc1=O (stereo unspecified),,> 100 µM,,> 100 µM,,> 100 µM,,> 100 µM,,> 100 µM,,> 100 µM,,> 100 µM,,> 100 µM,,,,
COc1ccc(-c2nc(Nc3cc(C)[nH]n3)c3ccccc3n2)cc1,0.801 µM,> 100 µM,0.52 µM,> 64.1 µM,3.35 µM,> 77.4 µM,1.58 µM,> 35.2 µM,,,3.67 µM,58.5 µM,5.47 µM,> 100 µM,0.44 µM,40.6 µM,1.16 µM,> 100 µM,25.4 µM,0.581 µM
CO/N=C(\COc1ccc2c(c1)[nH]c1ccccc12)c1ccc(F)cc1,35.7 µM,> 100 µM,> 100 µM,> 100 µM,> 100 µM,> 100 µM,,,> 100 µM,> 100 µM,,,> 100 µM,> 100 µM,,,25.4 µM,> 100 µM,,
CO[C@H]1CC(O[C@@H]2/C(C)=C/C[C@@H]3C[C@@H](C[C@]4(C=C[C@H](C)[C@@H](C5CCCCC5)O4)O3)OC(=O)[C@@H]3C=C(C)[C@@H](O)[C@H]4OC/C(=C\C=C\[C@@H]2C)[C@]43O)O[C@@H](C)C1O[C@H]1C[C@H](OC)[C@@H](O)[C@H](C)O1 (stereo partly specified),1.66 µM,3.04 µM,1.22 µM,2.73 µM,1.51 µM,3 µM,,,,,2.05 µM,4.83 µM,,,,,,,4.62 µM,1.86 µM
CCC(=O)C12OC3OC(C)(C)OC3C1OC(C)(C)O2 (stereo unspecified),,> 100 µM,,> 100 µM,,> 100 µM,,> 100 µM,,,,> 100 µM,,> 100 µM,,> 100 µM,,> 100 µM,> 100 µM,
O=C(/C=C/c1cc2ccccc2[nH]c1=O)/C=C/c1cc2ccccc2[nH]c1=O,11.2 µM,> 95.3 µM,15.2 µM,> 100 µM,5.28 µM,9.01 µM,> 32.3 µM,> 100 µM,,,24 µM,> 100 µM,9.25 µM,48.9 µM,> 24.7 µM,> 30.6 µM,4.53 µM,12.1 µM,> 100 µM,6.42 µM
COc1cc2nc(N3CCCC3)nc(NCCc3ccccc3)c2cc1OC,1.67 µM,3.04 µM,1.66 µM,3.19 µM,1.96 µM,3.64 µM,1.85 µM,4.25 µM,,,2.43 µM,7.69 µM,1.8 µM,3.64 µM,2.02 µM,3.91 µM,,,5.74 µM,0.653 µM
CN(N=O)C(=O)ON1C(=O)CCC1=O,,> 100 µM,,> 100 µM,,> 100 µM,,> 100 µM,,> 100 µM,,> 100 µM,,> 100 µM,,> 100 µM,,,,
O=C1C(=C([O-])c2ccccc2)C(=O)c2ccccc21.O=C1C(=C([O-])c2ccccc2)C(=O)c2ccccc21.[Fe+2],> 100 µM,> 100 µM,> 100 µM,> 100 µM,69.5 µM,> 100 µM,80.9 µM,> 100 µM,6.33 µM,23.6 µM,> 100 µM,> 100 µM,58.8 µM,> 100 µM,,,54.9 µM,> 100 µM,,
COC(=O)C1CC2CC(=NNC(N)=O)CC2C1 (stereo unspecified),,> 100 µM,,> 100 µM,,> 100 µM,,> 100 µM,,> 100 µM,,> 100 µM,,> 100 µM,,> 100 µM,,> 100 µM,,
C1CCC([PH+](C2CCCCC2)C2CCCCC2[PH+](C2CCCCC2)C2CCCCC2)CC1.[Au].[CH-]1CCCCC1CC1CCCC[N-]1 (stereo unspecified),0.902 µM,2.1 µM,0.791 µM,2.29 µM,0.404 µM,1.49 µM,0.277 µM,0.833 µM,,,,,,,0.398 µM,1.38 µM,0.199 µM,1.59 µM,,

# Source: PubChem BioAssay (NCI)
